Measured values as given in patent US4859693A, “Antiinflammatory carbinoloimidazoles” (E. I. Du Pont de Nemours and Company, priority 1988, dated 1989).

system: inflammation induced by tetradecanoyl phorbol acetate (TPA); assay: TPA model: inflammation (ear edema) induced by tetradecanoyl phorbol acetate in mice; type: in vivo; conditions: 100 μg/ear topical, mouse ear, TPA stimulus, edema measured four hours later
Description: One such model is the inflammation induced by tetradecanoyl phorbol acetate (TPA). The test methods are modified from those of Marks et al. (Cancer Res, 36, p. 2636, 1976). The TPA model is a murine model which mimics many of the inflammatory changes which occur in human disease such as psoriasis. In this model, elevated levels of inflammatory arachidonic acid metabolites are found, and an influx or polymorphonuclear leukocytes (PMN) is observed. The procedure used to evaluate the compounds of this invention is as follows: the test compound (100 μg/ear) is applied to the ears of mice in an appropriate vehicle, such as acetone, and then the inflammatory stimulus is applied to the right ear. Four hours later, the edema is measured by removing standard sized discs from the mouse ears using a biopsy punch. The masses of the discs are then determined.

Structure (SMILES)	% Inhibition of Control Inflammation
CC(n1ccnc1)C(O)(c1ccc(Cl)cc1)c1ccc(Cl)cc1 (centres unmarked) [Example 3e]	55%
CC(n1ccnc1)C(O)(c1ccc(F)cc1)c1ccc(F)cc1 (centres unmarked) [Example 3b]	40%
C[C@@H](n1ccnc1)C(O)(c1ccc(Cl)cc1)c1ccc(Cl)cc1 [Example 5a, (R)-1,1-bis(4-chlorophenyl)-2-(1-imidazolyl)propanol]	61%
OC(CCCn1ccnc1)(c1ccc(F)cc1)c1ccc(F)cc1 [Example 1a, 1,1-bis(4-fluorophenyl)-4-(1-imidazolyl)butanol]	31%
CCC(n1ccnc1)C(O)(c1ccc(F)cc1)c1ccc(F)cc1 (racemic) [Example 3a, 1,1-bis(4-fluorophenyl)-2-(1-imidazolyl)butanol]	40%
OC(Cn1ccnc1)(c1ccc(F)cc1)c1ccc(Br)cc1 (centres unmarked) [Example 2b, 1-(4-fluorophenyl)-1-(4-bromophenyl)-2-(1-imidazolyl)-ethanol]	41%
CCCC(n1ccnc1)C(O)(c1ccc(F)cc1)c1ccc(F)cc1 (centres unmarked) [Example 3c]	30%
Cc1ccc(C(O)(c2ccc(C)cc2)[C@H](C)n2ccnc2)cc1 [Example 4a, (S)-1,1-bis(4-methylphenyl)-2-(1-imidazolyl)propanol]	33%
